Laboratory results published in US5317021A, “3-mercapto-glutamic acid derivatives” (ONO Pharmaceutical Co., Ltd., priority 1988, dated 1994).
Counter-ions that a name gives are not always drawn.

Columns and labels:
[1] = acute toxicity (LD50), intraperitoneal injection in mice; conditions: mouse, in vivo, ip
[2] = tested on: bradykinin-induced biting-like response; experiment: Inhibitory effect on bradykinin-induced biting-like response; format: in vivo, male Spraque-Dawley rats; conditions: for Number of rats which did not show the biting-like response, 30 minutes after p.o. / Number of rats which did not show the biting-like response, 60 minutes after p.o. / Number of rats which did not show the biting-like response, 90 minutes after p.o. / Number of rats which did not show the biting-like response, 120 minutes after p.o.: 100 mg/kg p.o., number of rats 8; for Number of rats which did not show the biting-like response, 10 minutes after i.p. / Number of rats which did not show the biting-like response, 40 minutes after i.p. / Number of rats which did not show the biting-like response, 70 minutes after i.p. / Number of rats which did not show the biting-like response, 100 minutes after i.p.: 10 mg/kg i.p., number of rats 5 (Example 1), 8 (Example 12(5))
Description: The experiment was carried out according to the method as described in Journal of Pharmacological Methods, Z, 271 (1982). That is, male Spraque-Dawley rats (weighing 200~300 g) were used. Implantation of the bradykinin (0.63~1.25 μg in 0.5~1.0 μl of distilled water) - filled cannula onto the tooth pulp and the fixation of it on the lower incisor surfaces were carried out under ethyl ether anesthesia. A micro-application of bradykinin onto the tooth pulp produced biting-like response and some other aversive behaviors such as jumping, struggling, rubbing, scratching, escape, head-jerk and body-jerk within 1 minute.
The test compounds suspended in 0.5% carboxymethyl cellulose solution were administered either intraperitoneally or orally. After regular intervals bradykinin was administered.

enkephalinase = target: T1, enkephalinase (Mus musculus, UniProt Q61391); experiment: Inhibitory effect on enkephalinase; format: biochemical, ddY male mice; conditions: substrate Suc-Ala-Ala-Phe-AMC 10^-4 M, 37° C., 60 minutes, mouse striata enzyme
T1 construct: striata obtained from ddY male mice; from tissue; host or cells: striata of ddY male mice (washed 20000 g membrane pellet, not purified)
T1 sequence (Q61391 1-750): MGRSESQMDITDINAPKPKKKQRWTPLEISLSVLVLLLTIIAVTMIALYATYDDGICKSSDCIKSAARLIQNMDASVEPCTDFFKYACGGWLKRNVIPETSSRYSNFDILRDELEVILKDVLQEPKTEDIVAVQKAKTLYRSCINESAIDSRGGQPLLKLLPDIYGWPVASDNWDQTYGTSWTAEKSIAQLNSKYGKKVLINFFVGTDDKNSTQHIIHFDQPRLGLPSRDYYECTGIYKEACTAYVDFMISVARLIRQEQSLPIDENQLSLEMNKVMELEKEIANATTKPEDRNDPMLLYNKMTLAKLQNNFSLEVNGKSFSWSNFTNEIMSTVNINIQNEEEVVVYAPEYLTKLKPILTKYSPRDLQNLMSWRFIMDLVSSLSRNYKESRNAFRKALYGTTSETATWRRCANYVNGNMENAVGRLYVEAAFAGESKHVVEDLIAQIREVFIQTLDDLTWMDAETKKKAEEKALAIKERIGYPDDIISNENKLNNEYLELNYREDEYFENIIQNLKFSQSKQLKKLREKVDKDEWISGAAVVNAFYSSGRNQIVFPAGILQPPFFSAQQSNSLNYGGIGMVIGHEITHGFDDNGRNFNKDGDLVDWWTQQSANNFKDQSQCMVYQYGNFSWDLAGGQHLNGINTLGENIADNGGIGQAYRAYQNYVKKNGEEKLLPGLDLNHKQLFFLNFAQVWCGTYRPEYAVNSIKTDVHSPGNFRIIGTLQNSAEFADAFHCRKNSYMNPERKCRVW
Description: That is, to striata obtained from ddY male mice (weighing 28~30 g), Tris hydrochloric acid buffer solution (referred to "Tris buffer" hereafter) was added. The mixture was homogenised and centrifuged (1000 g×5 minites). The supernatant obtained was further centrifuged (20000 g×1 minutes). The resulting pellet was washed with cold Tris buffer and resuspended in a fresh Tris buffer to use as enzyme source of enkephalinase.
Incubation at 37° C. for 60 minutes was started by adding thereto […] of enzyme solution (×30 dilution of the above enzyme source) and 50 μl of a substrate solution containing succinyl-alanyl-alanyl-phenylalanyl (7-amido-4-methyl)coumarin (i.e. Suc-Ala-Ala-Phe-AMC, final concentration: 10^-4 M) dissolved in 50 mM HEPES/NaOH buffer (pH 7.4). The reaction was stopped by the addition of thiorphan (10^-6 M) and by heating the samples at 95° C. for 15 minutes. […] Blanks values were obtained by the same procedure as above described by using thiorphan (10^-6 M) instead of the test compound.

| SMILES | IC50 (enkephalinase) | other results |
| --- | --- | --- |
| O=C(O)CC[C@H](NC(=O)[C@@H](CSC1OC(=O)c2ccccc21)Cc1ccccc1)C(=O)Nc1ccccc1 (stereo partly drawn) [Example 16, N-[3-(phthalid-3yl)thio-2S-benzylpropionyl]-α-anilino-L-glutamic acid] |  | LD50 [1]: 500 to 1000 mg/kg; Number of rats which did not show the biting-like response, 30 minutes after p.o. [2]: 3; Number of rats which did not show the biting-like response, 60 minutes after p.o. [2]: 6; Number of rats which did not show the biting-like response, 90 minutes after p.o. [2]: 2; Number of rats which did not show the biting-like response, 120 minutes after p.o. [2]: 0 |
| COC(=O)C[C@H](NC(=O)C(CS)Cc1ccccc1)C(=O)Nc1ccc2c(c1)C(c1ccccc1)=NCCN2C (stereo partly drawn) [Example 4, N-(3-mercapto-2RS-benzylpropionyl)-L-aspartic acid α-(2,3-dihydro-1-methyl-5-phenyl-1H-1,4-benzodiazepin-7yl)amide β-methyl ester] | 150 nM |  |
| COc1ccc(CC(CS)C(=O)N[C@@H](CCC(=O)O)C(=O)Nc2ccccc2)cc1 (stereo partly drawn) [1(2), N-[3-mercapto-2RS-(4-methoxybenzyl)-propionyl]-α-anilino-L-glutamic acid] | 51 nM |  |
| CN(C)c1ccc(NC(=O)C[C@H](NC(=O)C(CS)Cc2ccccc2)C(=O)O)cc1 (stereo partly drawn) [12(7), N-(3-mercapto-2RS-benzylpropionyl)-β-[4-(N,N-dimethylamino)anilino]-L-aspartic acid] | 24 nM |  |
| Cc1ccc(CC(CS)C(=O)N[C@@H](CCC(=O)O)C(=O)Nc2ccccc2)cc1 (stereo partly drawn) [1(3), N-[3-mercapto-2RS-(4-methylbenzyl)-propionyl]-α-anilino-L-glutamic acid] | 71 nM |  |
| O=C(C[C@H](NC(=O)C(CS)Cc1ccccc1)C(=O)O)Nc1ccc(C(F)(F)F)cc1 (stereo partly drawn) [12(8), N-(3-mercapto-2RS-benzylpropionyl)-β-(4-trifluoromethylanilino)-L-aspartic acid] | 21 nM |  |
| O=C(O)CC[C@H](NC(=O)C(CS)Cc1ccccc1)C(=O)Nc1ccc(C(=O)O)cc1 (stereo partly drawn) [3(2), N-(3-mercapto-2RS-benzylpropionyl)-α-(4-carboxyanilino)-L-glutamic acid] | 3.6 nM |  |
| O=C(C[C@H](NC(=O)C(CS)Cc1ccccc1)C(=O)O)Nc1ccccc1 (stereo partly drawn) [Example 12, N-(3-mercapto-2RS-benzylpropionyl)-β-anilino-L-aspartic acid and the corresponding α-sodium salt] | 13 nM |  |
| O=C(O)CC[C@H](NC(=O)C(CS)Cc1ccccc1)C(=O)Nc1cccc2ccccc12 (stereo partly drawn) [2(7), N-(3-mercapto-2RS-benzylpropionyl)-L-glutamic acid α-(1-naphthyl)amide] | 350 nM |  |
| O=C(O)CC[C@H](NC(=O)[C@@H](CSC(=O)C(c1ccccc1)c1ccccc1)Cc1ccccc1)C(=O)Nc1ccccc1 [13(5), N-(3-diphenylacetylthio-2S-benzylpropionyl)-α-anilino-L-glutamic acid] |  | Number of rats which did not show the biting-like response, 30 minutes after p.o. [2]: 1; Number of rats which did not show the biting-like response, 60 minutes after p.o. [2]: 7; Number of rats which did not show the biting-like response, 90 minutes after p.o. [2]: 1; Number of rats which did not show the biting-like response, 120 minutes after p.o. [2]: 1 |
| O=C(O)CC[C@H](NC(=O)C(CS)Cc1ccccc1)C(=O)Nc1nc2ccccc2s1 (stereo partly drawn) [2(10), N-(3-mercapto-2RS-benzylpropionyl)-L-glutamic acid α-(2-benzthiazolyl) amide] | 44 nM |  |
| O=C(O)CC[C@H](NC(=O)C(CS)Cc1ccccc1)C(=O)Nc1ccccc1 (stereo partly drawn) [Example 1, N-(3-mercapto-2RS-benzylpropionyl)-α-anilino-L-glutamic acid] | 21 nM | Number of rats which did not show the biting-like response, 10 minutes after i.p. [2]: 4; Number of rats which did not show the biting-like response, 40 minutes after i.p. [2]: 4; Number of rats which did not show the biting-like response, 70 minutes after i.p. [2]: 3; Number of rats which did not show the biting-like response, 100 minutes after i.p. [2]: 1 |

Continued by falling IC50 (enkephalinase), values first:

| IC50 (enkephalinase) | SMILES | other results |
| --- | --- | --- |
| 400 nM | O=C(O)CC[C@H](NC(=O)C(CS)CC1CCCCC1)C(=O)Nc1ccccc1 (stereo partly drawn) [1(1), N-(3-mercapto-2RS-cyclohexylmethyl-propionyl)-α-anilino-L-glutamic acid] |  |
| 190 nM | O=C(O)CC[C@H](NC(=O)C(CS)Cc1ccccc1)C(=O)Nc1cnccn1 (stereo partly drawn) [3(9), N-(3-mercapto-2RS-benzylpropionyl)-L-glutamic acid α-(pyrazin-2-yl) amide] |  |
| 68 nM | O=C(CC[C@H](NC(=O)C(CS)Cc1ccccc1)C(=O)O)Nc1ccccc1 (stereo partly drawn) [Example 11, N-(3-mercapto-2RS-benzylpropionyl)-γ-anilino-L-glutamic acid α-sodium salt] |  |
| 50 nM | COc1ccc(NC(=O)[C@H](CC(=O)O)NC(=O)C(CS)Cc2ccccc2)cc1 (single isomer, unassigned) [8(4), N-(3-mercapto-2RS-benzylpropionyl)-α-(4-methoxyanilino)-L-aspartic acid] |  |
| 35 nM | O=C(O)CC[C@H](NC(=O)C(CS)Cc1ccccc1)C(=O)Nc1ccc(Cl)cn1 (stereo partly drawn) [3(4), N-(3-mercapto-2RS-benzylpropionyl)-L-glutamic acid α-(5-chloropyridin-2-yl)amide] |  |
| 23 nM | NS(=O)(=O)c1ccc(NC(=O)[C@H](CCC(=O)O)NC(=O)C(CS)Cc2ccccc2)cc1 (stereo partly drawn) [3(8), N-(3-mercapto-2RS-benzylpropionyl)-α-(4-sulfamoylanilino)-L-glutamic acid] |  |
| 2.8 nM | O=C(C[C@H](NC(=O)C(CS)Cc1ccccc1)C(=O)O)Nc1ccc(I)cc1 (stereo partly drawn) [12(5), N-(3-mercapto-2RS-benzylpropionyl)-β-(4-iodoanilino)-L-aspartic acid] | Number of rats which did not show the biting-like response, 10 minutes after i.p. [2]: 4; Number of rats which did not show the biting-like response, 40 minutes after i.p. [2]: 2; Number of rats which did not show the biting-like response, 70 minutes after i.p. [2]: 1; Number of rats which did not show the biting-like response, 100 minutes after i.p. [2]: 0 |
